Assay results from ChEMBL document CHEMBL1629509, “Design, synthesis and inhibitory activity against Mycobacterium tuberculosis thymidine monophosphate kinase of acyclic nucleoside analogues with a distal imidazoquinolinone” (Eur J Med Chem, 2010).
Converted amounts (≈) assume the structure as drawn. The source made the active and inactive calls. No cut-off for these calls is given here.

How the values were obtained:
Thymidylate kinase = target: T1, Thymidylate kinase (Mycobacterium tuberculosis, UniProt P9WKE1); assay: Inhibition of Mycobacterium tuberculosis Thymidine monophosphate kinase by spectrophotometry
T1 sequence (P9WKE1 whole entry): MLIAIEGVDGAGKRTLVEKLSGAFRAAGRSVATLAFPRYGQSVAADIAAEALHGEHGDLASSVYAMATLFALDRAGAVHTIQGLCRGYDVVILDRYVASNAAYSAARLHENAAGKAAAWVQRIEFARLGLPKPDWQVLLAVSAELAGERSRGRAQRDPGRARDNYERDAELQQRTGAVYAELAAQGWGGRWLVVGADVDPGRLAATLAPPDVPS

[1] = system: Mycolicibacterium smegmatis; assay: Antimycobacterial activity against Mycobacterium smegmatis mc2155 assessed as growth inhibition at 160 ug/ml by resazurin microtiter plate assay; type: functional, organism-based
[2] = Solubility of the compound in water; type: physicochemical

SMILES: Cc1cn([C@H]2C[C@H](O)[C@@H](COP(=O)(O)O)O2)c(=O)[nH]c1=O [THYMIDINE MONOPHOSPHATE]
- Ki (Thymidylate kinase): 4500 nM

SMILES: Cc1cn(C/C=C/Cn2c(=O)n3c4c(cccc42)CCC3)c(=O)[nH]c1=O
- Ki (Thymidylate kinase): 1160 nM
- Activity [1]: inactive

SMILES: Cc1cn(C/C=C/Cn2c(=O)n3c4c(cc(N)cc42)CCC3)c(=O)[nH]c1=O
- Ki (Thymidylate kinase): 2460 nM
- Activity [1]: inactive

SMILES: CC(=O)Nc1cc2c3c(c1)n(C/C=C/Cn1cc(C)c(=O)[nH]c1=O)c(=O)n3CCC2
- Ki (Thymidylate kinase): 930 nM
- Activity [1]: inactive

SMILES: CC(=O)NC1Cc2cccc3c2n(c(=O)n3C/C=C/Cn2cc(C)c(=O)[nH]c2=O)C1 (stereo not drawn)
- Ki (Thymidylate kinase): 5800 nM
- Activity [1]: inactive

SMILES: O=c1[nH]c(=O)n(C/C=C/CN2c3cccc4c3N(CCC4)S2(=O)=O)cc1Br
- Ki (Thymidylate kinase): 300 nM
- Activity [1]: inactive

SMILES: Cc1cn(C/C=C/CN2C(=O)c3cccc4cccc2c34)c(=O)[nH]c1=O
- solubility [2]: 640 µg/mL (≈ 1840 µM)
- Ki (Thymidylate kinase): 420 nM

SMILES: Cc1cn(C/C=C/CN2c3cccc4c3N(CCC4)S2(=O)=O)c(=O)[nH]c1=O
- Ki (Thymidylate kinase): 570 nM
- Activity [1]: inactive

SMILES: Cc1cn(C/C=C/Cn2c(=O)n3c4c(cccc42)CC(N)C3)c(=O)[nH]c1=O (stereo not drawn)
- Ki (Thymidylate kinase): 7070 nM
- Activity [1]: inactive

SMILES: Cc1cn(C/C=C/CN2c3cccc4cccc(c34)S2(=O)=O)c(=O)[nH]c1=O
- Ki (Thymidylate kinase): 270 nM
